Source: ChEMBL document CHEMBL1153480, “Study on the potential anti-cancer activity of phosphonium and ammonium-based ionic liquids” (2009)

What was measured:
Assay type in all cases: functional
cells [1] = details: Homo sapiens, CAKI
Description: Growth inhibition of human CAKI cells assessed as drug level required for 50% reduction in net protein increase by SRB assay relative to control

NCI-H522 = assay: cells; details: Homo sapiens
Description: Growth inhibition of human NCI-H522 cells assessed as cell growth at 10 uM by SRB assay

SR [2] = assay: cells; details: Homo sapiens
Description: Growth inhibition of human SR cells assessed as drug level required for 50% reduction in net protein increase by SRB assay relative to control

RXF 393 [3] = assay: Cytotoxicity against human RFX393 cells by SRB assay; details: read-out: LC50 (the source's name)
NCI-H322M = assay: cells; details: Homo sapiens
Description: Growth inhibition of human NCI-H322M cells assessed as drug level required for 50% reduction in net protein increase by SRB assay relative to control

TK-10 [4] = assay: cells; details: Homo sapiens
Description: Growth inhibition of human TK10 cells assessed as drug level required for 50% reduction in net protein increase by SRB assay relative to control

SK-MEL-5 [5] = assay: cells; details: Homo sapiens
Description: Growth inhibition of human SK-MEL-5 cells assessed as cell growth at 10 uM by SRB assay

BT-549 = assay: Cytotoxicity against human BT549 cells by SRB assay; details: read-out: LC50 (the source's name)
UO-31 [6] = assay: cells; details: Homo sapiens
Description: Growth inhibition of human UO31 cells assessed as drug level required for 50% reduction in net protein increase by SRB assay relative to control

M14 [7] = assay: Cytotoxicity against human M14 cells by SRB assay; details: read-out: LC50 (the source's name)
UACC-62 [8] = assay: cells; details: Homo sapiens
Description: Growth inhibition of human UACC62 cells assessed as drug level required for 50% reduction in net protein increase by SRB assay relative to control

SK-OV-3 [9] = assay: Cytotoxicity against human SKOV3 cells by SRB assay; details: read-out: LC50 (the source's name)
HOP-92 = assay: cells; details: Homo sapiens
Description: Growth inhibition of human HOP92 cells assessed as drug level required for 50% reduction in net protein increase by SRB assay relative to control

A498 = assay: cells; details: Homo sapiens
Description: Growth inhibition of human A498 cells assessed as cell growth at 10 uM by SRB assay

HCC 2998 = assay: cells; details: Homo sapiens
Description: Growth inhibition of human HCC2998 cells assessed as drug level required for 50% reduction in net protein increase by SRB assay relative to control

DU-145 [10] = assay: cells; details: Homo sapiens
Description: Growth inhibition of human DU145 cells assessed as drug level required for 50% reduction in net protein increase by SRB assay relative to control

HOP-62 [11] = assay: Cytotoxicity against human HOP62 cells by SRB assay; details: read-out: LC50 (the source's name)
MCF7 [12] = assay: Cytotoxicity against human MCF7 cells by SRB assay; details: read-out: LC50 (the source's name)
SR [13] = assay: Cytotoxicity against human SR cells by SRB assay; details: read-out: LC50 (the source's name)
SF-539 [14] = assay: cells; details: Homo sapiens
Description: Growth inhibition of human SF539 cells assessed as cell growth at 10 uM by SRB assay

RXF 393 [15] = assay: cells; details: Homo sapiens
Description: Growth inhibition of human RFX393 cells assessed as cell growth at 10 uM by SRB assay

SK-MEL-2 = assay: cells; details: Homo sapiens
Description: Growth inhibition of human SK-MEL-2 cells assessed as cell growth at 10 uM by SRB assay

MDA-MB-468 [16] = assay: Cytotoxicity against human MDA-MB-468 cells by SRB assay; details: read-out: LC50 (the source's name)
RPMI-8226 = assay: cells; details: Homo sapiens
Description: Growth inhibition of human RPMI8226 cells assessed as cell growth at 10 uM by SRB assay

DU-145 [17] = assay: cells; details: Homo sapiens; remark: listed apart in the source
Description: Growth inhibition of human DU145 cells assessed as cell growth at 10 uM by SRB assay

SNB-19 = assay: cells; details: Homo sapiens
Description: Growth inhibition of human SNB19 cells assessed as cell growth at 10 uM by SRB assay

MDA-MB-231 = assay: cells; details: Homo sapiens
Description: Growth inhibition of human MDA-MB-231 cells assessed as cell growth at 10 uM by SRB assay

NCI-H226 [18] = assay: cells; details: Homo sapiens
Description: Growth inhibition of human NCI-H226 cells assessed as cell growth at 10 uM by SRB assay

SK-OV-3 [19] = assay: cells; details: Homo sapiens
Description: Growth inhibition of human SKOV3 cells assessed as drug level required for 50% reduction in net protein increase by SRB assay relative to control

MCF7 [20] = assay: cells; details: Homo sapiens
Description: Growth inhibition of human MCF7 cells assessed as drug level required for 50% reduction in net protein increase by SRB assay relative to control

SF-539 [21] = assay: cells; details: Homo sapiens; remark: listed apart in the source
Description: Growth inhibition of human SF539 cells assessed as drug level required for 50% reduction in net protein increase by SRB assay relative to control

T47D [22] = assay: cells; details: Homo sapiens
Description: Growth inhibition of human T47D cells assessed as drug level required for 50% reduction in net protein increase by SRB assay relative to control

K562 [23] = assay: cells; details: Homo sapiens
Description: Growth inhibition of human K562 cells assessed as drug level required for 50% reduction in net protein increase by SRB assay relative to control

M14 [24] = assay: cells; details: Homo sapiens
Description: Growth inhibition of human M14 cells assessed as cell growth at 10 uM by SRB assay

MDA-MB-468 [25] = assay: cells; details: Homo sapiens
Description: Growth inhibition of human MDA-MB-468 cells assessed as drug level required for 50% reduction in net protein increase by SRB assay relative to control

cells [26] = details: Homo sapiens, CAKI; remark: listed apart in the source
Description: Growth inhibition of human CAKI cells assessed as cell growth at 10 uM by SRB assay

HCT-116 [27] = assay: Cytotoxicity against human HCT116 cells by SRB assay; details: read-out: LC50 (the source's name)
Malme-3M [28] = assay: Cytotoxicity against human MALME-3M cells by SRB assay; details: read-out: LC50 (the source's name)
HOP-62 [29] = assay: cells; details: Homo sapiens
Description: Growth inhibition of human HOP62 cells assessed as drug level required for 50% reduction in net protein increase by SRB assay relative to control

MDA-MB-435 = assay: cells; details: Homo sapiens
Description: Growth inhibition of human MDA-MB-435 cells assessed as drug level required for 50% reduction in net protein increase by SRB assay relative to control

UO-31 [30] = assay: cells; details: Homo sapiens; remark: listed apart in the source
Description: Growth inhibition of human UO31 cells assessed as cell growth at 10 uM by SRB assay

K562 [31] = assay: Cytotoxicity against human K562 cells by SRB assay; details: read-out: LC50 (the source's name)
MOLT-4 = assay: cells; details: Homo sapiens
Description: Growth inhibition of human MOLT4 cells assessed as cell growth at 10 uM by SRB assay

SK-MEL-5 [32] = assay: cells; details: Homo sapiens; remark: listed apart in the source
Description: Growth inhibition of human SK-MEL-5 cells assessed as drug level required for 50% reduction in net protein increase by SRB assay relative to control

SF-268 [33] = assay: cells; details: Homo sapiens
Description: Growth inhibition of human SF268 cells assessed as drug level required for 50% reduction in net protein increase by SRB assay relative to control

HCT-15 = assay: cells; details: Homo sapiens
Description: Growth inhibition of human HCT15 cells assessed as cell growth at 10 uM by SRB assay

RXF 393 [34] = assay: cells; details: Homo sapiens; remark: listed apart in the source
Description: Growth inhibition of human RFX393 cells assessed as drug level required for 50% reduction in net protein increase by SRB assay relative to control

Malme-3M [35] = assay: cells; details: Homo sapiens
Description: Growth inhibition of human MALME-3M cells assessed as cell growth at 10 uM by SRB assay

UACC-62 [36] = assay: cells; details: Homo sapiens; remark: listed apart in the source
Description: Growth inhibition of human UACC62 cells assessed as cell growth at 10 uM by SRB assay

KM12 = assay: cells; details: Homo sapiens
Description: Growth inhibition of human KM12 cells assessed as drug level required for 50% reduction in net protein increase by SRB assay relative to control

UO-31 [37] = assay: Cytotoxicity against human UO31 cells by SRB assay; details: read-out: LC50 (the source's name)
OVCAR-4 [38] = assay: cells; details: Homo sapiens
Description: Growth inhibition of human OVCAR4 cells assessed as drug level required for 50% reduction in net protein increase by SRB assay relative to control

HL-60(TB) [39] = assay: cells; details: Homo sapiens
Description: Growth inhibition of human HL-60(TB) cells assessed as cell growth at 10 uM by SRB assay

ACHN [40] = assay: cells; details: Homo sapiens
Description: Growth inhibition of human ACHN cells assessed as cell growth at 10 uM by SRB assay

cells [41] = details: Homo sapiens, Hs-578T
Description: Growth inhibition of human Hs 578T cells assessed as cell growth at 10 uM by SRB assay

T47D [42] = assay: cells; details: Homo sapiens; remark: listed apart in the source
Description: Growth inhibition of human T47D cells assessed as cell growth at 10 uM by SRB assay

CCRF-CEM [43] = assay: cells; details: Homo sapiens
Description: Growth inhibition of human CCRF-CEM cells assessed as cell growth at 10 uM by SRB assay

HT-29 [44] = assay: cells; details: Homo sapiens
Description: Growth inhibition of human HT-29 cells assessed as cell growth at 10 uM by SRB assay

TK-10 [45] = assay: cells; details: Homo sapiens; remark: listed apart in the source
Description: Growth inhibition of human TK10 cells assessed as cell growth at 10 uM by SRB assay

NCI-H226 [46] = assay: cells; details: Homo sapiens; remark: listed apart in the source
Description: Growth inhibition of human NCI-H226 cells assessed as drug level required for 50% reduction in net protein increase by SRB assay relative to control

HL-60(TB) [47] = assay: cells; details: Homo sapiens; remark: listed apart in the source
Description: Growth inhibition of human HL-60(TB) cells assessed as drug level required for 50% reduction in net protein increase by SRB assay relative to control

HCT-116 [48] = assay: cells; details: Homo sapiens
Description: Growth inhibition of human HCT116 cells assessed as drug level required for 50% reduction in net protein increase by SRB assay relative to control

K562 [49] = assay: cells; details: Homo sapiens; remark: listed apart in the source
Description: Growth inhibition of human K562 cells assessed as cell growth at 10 uM by SRB assay

HT-29 [50] = assay: cells; details: Homo sapiens; remark: listed apart in the source
Description: Growth inhibition of human HT-29 cells assessed as drug level required for 50% reduction in net protein increase by SRB assay relative to control

OVCAR-8 = assay: Cytotoxicity against human OVCAR8 cells by SRB assay; details: read-out: LC50 (the source's name)
OVCAR-3 = assay: Cytotoxicity against human OVCAR-3 cells by SRB assay; details: read-out: LC50 (the source's name)
OVCAR-4 [51] = assay: Cytotoxicity against human OVCAR4 cells by SRB assay; details: read-out: LC50 (the source's name)
SW-620 = assay: cells; details: Homo sapiens
Description: Growth inhibition of human SW620 cells assessed as drug level required for 50% reduction in net protein increase by SRB assay relative to control

SF-268 [52] = assay: cells; details: Homo sapiens; remark: listed apart in the source
Description: Growth inhibition of human SF268 cells assessed as cell growth at 10 uM by SRB assay

ACHN [53] = assay: cells; details: Homo sapiens; remark: listed apart in the source
Description: Growth inhibition of human ACHN cells assessed as drug level required for 50% reduction in net protein increase by SRB assay relative to control

CCRF-CEM [54] = assay: cells; details: Homo sapiens; remark: listed apart in the source
Description: Growth inhibition of human CCRF-CEM cells assessed as drug level required for 50% reduction in net protein increase by SRB assay relative to control

cells [55] = details: Homo sapiens, Hs-578T; remark: listed apart in the source
Description: Growth inhibition of human Hs 578T cells assessed as drug level required for 50% reduction in net protein increase by SRB assay relative to control

DU-145 [56] = assay: Cytotoxicity against human DU145 cells by SRB assay; details: read-out: LC50 (the source's name)

CCCCCCCCCCCCCCCCCCPCCCCCCCCCCCCCC.O=S(=O)(NS(=O)(=O)C(F)(F)F)C(F)(F)F (stereo not drawn)
GI50 (cells [1]): 0.236 µM
growth at 10 µM (NCI-H522): -71.4%
GI50 (SR [2]): 0.072 µM
CC50 (RXF 393 [3]): > 100 µM
GI50 (NCI-H322M): 0.321 µM
GI50 (TK-10 [4]): 0.341 µM
growth at 10 µM (SK-MEL-5 [5]): -100%
CC50 (BT-549): > 100 µM
GI50 (UO-31 [6]): 0.35 µM
CC50 (M14 [7]): > 100 µM
GI50 (UACC-62 [8]): 0.045 µM
CC50 (SK-OV-3 [9]): > 100 µM
GI50 (HOP-92): 0.03 µM
growth at 10 µM (A498): -48.3%
GI50 (HCC 2998): 0.24 µM
GI50 (DU-145 [10]): 0.156 µM
CC50 (HOP-62 [11]): > 100 µM
CC50 (MCF7 [12]): > 100 µM
CC50 (SR [13]): 8.09 µM
growth at 10 µM (SF-539 [14]): 5.67%
growth at 10 µM (RXF 393 [15]): -97.7%
growth at 10 µM (SK-MEL-2): -3.57%
CC50 (MDA-MB-468 [16]): 2.56 µM
growth at 10 µM (RPMI-8226): 59.4%
growth at 10 µM (DU-145 [17]): -100%
growth at 10 µM (SNB-19): 8.99%
growth at 10 µM (MDA-MB-231): -38.3%
growth at 10 µM (NCI-H226 [18]): -1.45%
GI50 (SK-OV-3 [19]): 2.61 µM
GI50 (MCF7 [20]): 0.144 µM
GI50 (SF-539 [21]): 0.174 µM
GI50 (T47D [22]): 0.073 µM
GI50 (K562 [23]): 0.041 µM
growth at 10 µM (M14 [24]): -83.9%
GI50 (MDA-MB-468 [25]): 0.036 µM
growth at 10 µM (cells [26]): 4.01%
CC50 (HCT-116 [27]): > 100 µM
CC50 (Malme-3M [28]): 5.38 µM
GI50 (HOP-62 [29]): 0.435 µM
GI50 (MDA-MB-435): 0.045 µM
growth at 10 µM (UO-31 [30]): -36.6%
CC50 (K562 [31]): > 100 µM
growth at 10 µM (MOLT-4): 51.6%
GI50 (SK-MEL-5 [32]): 0.079 µM
GI50 (SF-268 [33]): 0.072 µM
growth at 10 µM (HCT-15): 7.54%
GI50 (RXF 393 [34]): 0.141 µM
growth at 10 µM (Malme-3M [35]): -36.5%
growth at 10 µM (UACC-62 [36]): -28.1%
GI50 (KM12): 0.049 µM
CC50 (UO-31 [37]): > 100 µM
GI50 (OVCAR-4 [38]): 0.073 µM
growth at 10 µM (HL-60(TB) [39]): 43.1%
growth at 10 µM (ACHN [40]): -26%
growth at 10 µM (cells [41]): -35.8%
growth at 10 µM (T47D [42]): -14.8%
growth at 10 µM (CCRF-CEM [43]): 26.4%
growth at 10 µM (HT-29 [44]): -58.2%
growth at 10 µM (TK-10 [45]): -43.3%
GI50 (NCI-H226 [46]): 0.105 µM
GI50 (HL-60(TB) [47]): 0.046 µM
GI50 (HCT-116 [48]): 0.061 µM
growth at 10 µM (K562 [49]): 39%
GI50 (HT-29 [50]): 0.053 µM
CC50 (OVCAR-8): > 100 µM
CC50 (OVCAR-3): 6.76 µM
CC50 (OVCAR-4 [51]): > 100 µM
GI50 (SW-620): 0.049 µM
growth at 10 µM (SF-268 [52]): -4.6%
GI50 (ACHN [53]): 0.26 µM
GI50 (CCRF-CEM [54]): 0.026 µM
GI50 (cells [55]): 0.053 µM
CC50 (DU-145 [56]): > 100 µM
